Data published in patent US5328985A, “Recombinant streptavidin-protein chimeras useful for conjugation of molecules in the immune system” (priority 1991, dated 1994).

Test system: recombinant streptavidin-Protein A chimeric protein encoded in pTSAPA-2 (streptavidin residues 16-133 fused to Protein A regions E and D; 31.4 kDa subunit …)
Assay: Determination of biotin-binding ability by gel filtration with D-[carbonyl-14C]biotin
Details: purified chimeric protein, subunit 31.4 kDa; room temperature, TBS; Sephadex G-25 gel filtration
Experimental: Biotin-binding ability was determined by gel filtration according to Methods Enzymol., 18A:424 (1970) using a Sephadex G-25 desalting column (PD-10; 0.76×5.0 cm, Pharmacia-LKB) and D-[carbonyl-^14 C]biotin (52 mCi/mmol, Amersham). The binding of the chimeric protein to biotin was done at room temperature in TBS containing 0.02% NAN3, and the same solution was used as the eluent.

In the case of `O=C(O)CCCC[C@@H]1SC[C@@H]2NC(=O)N[C@@H]21` [biotin, D-biotin], the “biotin-binding ability: molecules of biotin bound per subunit” value is reported as “more than 0.96 molecules of biotin per subunit”.
